Reference: patent publication US8211662B2, “Nitroreductase enzymatic substrates” (Biomerieux, priority 2007, dated 2012)

Test system: Bacillus subtilis NCTC 9372
Assay: Nitroreductase detection on Columbia agar, colonies read under UV
Assay type: cell-based
Design: key: − = no fluorescence detected; +/− = weak fluorescence; + = medium fluorescence; ++ = strong fluorescence
Conditions: 100 mg/l in Columbia agar, 24 h 37° C., UV 360-365 nm
Experimental: (§1) A mass of 40 mg of each substrate was dissolved in 4 ml of dimethylformamide (DMF). This solution was entirely taken up in 400 ml of Columbia agar autoclaved beforehand and kept molten at 50° C. The final concentration for each substrate was 100 mg/l.
(§2) Each of the media was distributed into Petri dishes 90 mm in diameter, in a proportion of 20 ml per dish.
(§3) 18 microorganism strains derived from collections and belonging to various species of bacteria and of yeasts were inoculated onto these media by semi-quantitative isolation of 10 μl of a suspension at 0.5 McFarland diluted to 1/20. The media were incubated for 24 hours at 37° C., then the colonies formed were examined visually under UV illumination at 360-365 nm.

Row | Compound | Intensity of fluorescence, Bacillus subtilis NCTC 9372
1 | O=[N+]([O-])c1ccc(F)cc1-c1nc2ccccc2o1 [Substrate 7] | −
2 | O=[N+]([O-])c1ccccc1-c1nc2ccccc2n1CCc1ccccc1 [Substrate 12] | −

Test system: Candida albicans ATCC 90028
Assay: as above
Assay type: cell-based
Design: key: − = no fluorescence detected; +/− = weak fluorescence; + = medium fluorescence; ++ = strong fluorescence
Conditions: 100 mg/l in Columbia agar, 24 h 37° C., UV 360-365 nm
Experimental: as §1, §2, §3

Row | Compound | Intensity of fluorescence, Candida albicans ATCC 90028
3 | O=[N+]([O-])c1ccc(F)cc1-c1nc2ccccc2o1 [Substrate 7] | −
4 | O=[N+]([O-])c1ccccc1-c1nc2ccccc2n1CCc1ccccc1 [Substrate 12] | −

Test system: Enterobacter cloacae NCTC 11936
Assay: as above
Assay type: cell-based
Design: key: − = no fluorescence detected; +/− = weak fluorescence; + = medium fluorescence; ++ = strong fluorescence
Conditions: 100 mg/l in Columbia agar, 24 h 37° C., UV 360-365 nm
Experimental: as §1, §2, §3

Row | Compound | Intensity of fluorescence, Enterobacter cloacae NCTC 11936
5 | O=[N+]([O-])c1ccc(F)cc1-c1nc2ccccc2o1 [Substrate 7] | ++
6 | O=[N+]([O-])c1ccccc1-c1nc2ccccc2n1CCc1ccccc1 [Substrate 12] | −

Test system: Enterococcus faecalis NCTC 775
Assay: as above
Assay type: cell-based
Design: key: − = no fluorescence detected; +/− = weak fluorescence; + = medium fluorescence; ++ = strong fluorescence
Conditions: 100 mg/l in Columbia agar, 24 h 37° C., UV 360-365 nm
Experimental: as §1, §2, §3

Row | Compound | Intensity of fluorescence, Enterococcus faecalis NCTC 775
7 | O=[N+]([O-])c1ccc(F)cc1-c1nc2ccccc2o1 [Substrate 7] | −
8 | O=[N+]([O-])c1ccccc1-c1nc2ccccc2n1CCc1ccccc1 [Substrate 12] | −

Test system: Escherichia coli NCTC 10418
Assay: as above
Assay type: cell-based
Design: key: − = no fluorescence detected; +/− = weak fluorescence; + = medium fluorescence; ++ = strong fluorescence
Conditions: 100 mg/l in Columbia agar, 24 h 37° C., UV 360-365 nm
Experimental: as §1, §2, §3

Row | Compound | Intensity of fluorescence, Escherichia coli NCTC 10418
9 | O=[N+]([O-])c1ccc(F)cc1-c1nc2ccccc2o1 [Substrate 7] | ++
10 | O=[N+]([O-])c1ccccc1-c1nc2ccccc2n1CCc1ccccc1 [Substrate 12] | −

Test system: Listeria monocytogenes NCTC 11994
Assay: as above
Assay type: cell-based
Design: key: − = no fluorescence detected; +/− = weak fluorescence; + = medium fluorescence; ++ = strong fluorescence
Conditions: 100 mg/l in Columbia agar, 24 h 37° C., UV 360-365 nm
Experimental: as §1, §2, §3

Row | Compound | Intensity of fluorescence, Listeria monocytogenes NCTC 11994
11 | O=[N+]([O-])c1ccc(F)cc1-c1nc2ccccc2o1 [Substrate 7] | −
12 | O=[N+]([O-])c1ccccc1-c1nc2ccccc2n1CCc1ccccc1 [Substrate 12] | −

Test system: Pseudomonas aeruginosa NCTC 10662
Assay: as above
Assay type: cell-based
Design: key: − = no fluorescence detected; +/− = weak fluorescence; + = medium fluorescence; ++ = strong fluorescence
Conditions: 100 mg/l in Columbia agar, 24 h 37° C., UV 360-365 nm
Experimental: as §1, §2, §3

Row | Compound | Intensity of fluorescence, Pseudomonas aeruginosa NCTC 10662
13 | O=[N+]([O-])c1ccc(F)cc1-c1nc2ccccc2o1 [Substrate 7] | −
14 | O=[N+]([O-])c1ccccc1-c1nc2ccccc2n1CCc1ccccc1 [Substrate 12] | −

Test system: Serratia marcescens NCTC 10211
Assay: as above
Assay type: cell-based
Design: key: − = no fluorescence detected; +/− = weak fluorescence; + = medium fluorescence; ++ = strong fluorescence
Conditions: 100 mg/l in Columbia agar, 24 h 37° C., UV 360-365 nm
Experimental: as §1, §2, §3

Row | Compound | Intensity of fluorescence, Serratia marcescens NCTC 10211
15 | O=[N+]([O-])c1ccc(F)cc1-c1nc2ccccc2o1 [Substrate 7] | ++
16 | O=[N+]([O-])c1ccccc1-c1nc2ccccc2n1CCc1ccccc1 [Substrate 12] | −

Test system: Staphylococcus aureus NCTC 6571
Assay: as above
Assay type: cell-based
Design: key: − = no fluorescence detected; +/− = weak fluorescence; + = medium fluorescence; ++ = strong fluorescence
Conditions: 100 mg/l in Columbia agar, 24 h 37° C., UV 360-365 nm
Experimental: as §1, §2, §3

Row | Compound | Intensity of fluorescence, Staphylococcus aureus NCTC 6571
17 | O=[N+]([O-])c1ccc(F)cc1-c1nc2ccccc2o1 [Substrate 7] | ++
18 | O=[N+]([O-])c1ccccc1-c1nc2ccccc2n1CCc1ccccc1 [Substrate 12] | −

Test system: Staphylococcus epidermidis NCTC 11047
Assay: as above
Assay type: cell-based
Design: key: − = no fluorescence detected; +/− = weak fluorescence; + = medium fluorescence; ++ = strong fluorescence
Conditions: 100 mg/l in Columbia agar, 24 h 37° C., UV 360-365 nm
Experimental: as §1, §2, §3

Row | Compound | Intensity of fluorescence, Staphylococcus epidermidis NCTC 11047
19 | O=[N+]([O-])c1ccc(F)cc1-c1nc2ccccc2o1 [Substrate 7] | −
20 | O=[N+]([O-])c1ccccc1-c1nc2ccccc2n1CCc1ccccc1 [Substrate 12] | −

Test system: Streptococcus pyogenes NCTC 8306
Assay: as above
Assay type: cell-based
Design: key: − = no fluorescence detected; +/− = weak fluorescence; + = medium fluorescence; ++ = strong fluorescence
Conditions: 100 mg/l in Columbia agar, 24 h 37° C., UV 360-365 nm
Experimental: as §1, §2, §3

Row | Compound | Intensity of fluorescence, Streptococcus pyogenes NCTC 8306
21 | O=[N+]([O-])c1ccc(F)cc1-c1nc2ccccc2o1 [Substrate 7] | −
22 | O=[N+]([O-])c1ccccc1-c1nc2ccccc2n1CCc1ccccc1 [Substrate 12] | −

Test system: Yersinia enterocolitica NCTC 11176
Assay: as above
Assay type: cell-based
Design: key: − = no fluorescence detected; +/− = weak fluorescence; + = medium fluorescence; ++ = strong fluorescence
Conditions: 100 mg/l in Columbia agar, 24 h 37° C., UV 360-365 nm
Experimental: as §1, §2, §3

Row | Compound | Intensity of fluorescence, Yersinia enterocolitica NCTC 11176
23 | O=[N+]([O-])c1ccc(F)cc1-c1nc2ccccc2o1 [Substrate 7] | −
24 | O=[N+]([O-])c1ccccc1-c1nc2ccccc2n1CCc1ccccc1 [Substrate 12] | −

Test system: Acinetobacter baumanii ATCC 19606
Assay: as above
Assay type: cell-based
Design: key to Intensity of fluorescence, Acinetobacter baumanii ATCC 19606 / Intensity of the fluorescence, Acinetobacter baumanii ATCC 19606: − = no fluorescence detected; +/− = weak fluorescence; + = medium fluorescence; ++ = strong fluorescence
Conditions: 100 mg/l in Columbia agar, 24 h 37° C., UV 360-365 nm
Experimental: as §1, §2, §3

Row | Compound | Intensity of fluorescence, Acinetobacter baumanii ATCC 19606
25 | O=[N+]([O-])c1ccc(F)cc1-c1nc2ccccc2o1 [Substrate 7] | +
26 | O=[N+]([O-])c1ccccc1-c1nc2ccccc2n1CCc1ccccc1 [Substrate 12] | −

Same assay, conditions: table 2

Row | Compound | Distinguishing Pseudomonas aeruginosa from Acinetobacter baumanii
27 | O=[N+]([O-])c1ccc(F)cc1-c1nc2ccccc2o1 [Substrate 7] | make it possible to distinguish Pseudomonas aeruginosa from Acinetobacter baumanii

Test system: Salmonella typhimurium NCTC 74
Assay: as above
Assay type: cell-based
Design: key to Intensity of fluorescence, Salmonella typhimurium NCTC 74 / F: fluorescence (intensity), Salmonella typhimurium NCTC 74 / Intensity of the fluorescence, Salmonella typhimurium NCTC 74: − = no fluorescence detected; +/− = weak fluorescence; + = medium fluorescence; ++ = strong fluorescence
Conditions: 100 mg/l in Columbia agar, 24 h 37° C., UV 360-365 nm
Experimental: as §1, §2, §3

Row | Compound | Intensity of fluorescence, Salmonella typhimurium NCTC 74
28 | O=[N+]([O-])c1ccc(F)cc1-c1nc2ccccc2o1 [Substrate 7] | ++
29 | O=[N+]([O-])c1ccccc1-c1nc2ccccc2n1CCc1ccccc1 [Substrate 12] | −

Same assay, conditions: table 2

Row | Compound | Salmonella typhimurium result with the substrate
30 | O=[N+]([O-])c1ccc(F)cc1-c1nc2ccccc2o1 [Substrate 7] | strongly positive
31 | O=[N+]([O-])c1ccccc1-c1nc2ccccc2n1CCc1ccccc1 [Substrate 12] | negative

Test system: Morganella morganii 462403 (wild)
Assay: as above
Assay type: cell-based
Design: key to Intensity of fluorescence, Morganella morganii 462403 / F: fluorescence (intensity), Morganella morganii 462403 (wild) / Intensity of the fluorescence, Morganella morganii 462403 (wild): − = no fluorescence detected; +/− = weak fluorescence; + = medium fluorescence; ++ = strong fluorescence
Conditions: 100 mg/l in Columbia agar, 24 h 37° C., UV 360-365 nm
Experimental: as §1, §2, §3

Row | Compound | Intensity of fluorescence, Morganella morganii 462403
32 | O=[N+]([O-])c1ccc(F)cc1-c1nc2ccccc2o1 [Substrate 7] | ++
33 | O=[N+]([O-])c1ccccc1-c1nc2ccccc2n1CCc1ccccc1 [Substrate 12] | +/−

Same assay, conditions: table 2

Row | Compound | Specificity of the substrate
34 | O=[N+]([O-])c1ccccc1-c1nc2ccccc2n1CCc1ccccc1 [Substrate 12] | specific for Morganella morganii

Test system: MRSA NCTC 11939
Assay: as above
Assay type: cell-based, Staphylococcus aureus
Design: key: − = no fluorescence detected; +/− = weak fluorescence; + = medium fluorescence; ++ = strong fluorescence
Conditions: 100 mg/l in Columbia agar, 24 h 37° C., UV 360-365 nm
Experimental: as §1, §2, §3

Row | Compound | Intensity of fluorescence, Staphylococcus aureus NCTC 11939
35 | O=[N+]([O-])c1ccc(F)cc1-c1nc2ccccc2o1 [Substrate 7] | ++
36 | O=[N+]([O-])c1ccccc1-c1nc2ccccc2n1CCc1ccccc1 [Substrate 12] | −

Test system: Candida glabrata NCPF 3943
Assay: as above
Assay type: cell-based
Design: key to Intensity of fluorescence, Candida glabrata NCPF3943 / F: fluorescence (intensity), Candida glabrata NCPF 3943 / Intensity of the fluorescence, Candida glabrata NCPF 3943: − = no fluorescence detected; +/− = weak fluorescence; + = medium fluorescence; ++ = strong fluorescence
Conditions: 100 mg/l in Columbia agar, 24 h 37° C., UV 360-365 nm
Experimental: as §1, §2, §3

Row | Compound | Intensity of fluorescence, Candida glabrata NCPF3943
37 | O=[N+]([O-])c1ccc(F)cc1-c1nc2ccccc2o1 [Substrate 7] | −
38 | O=[N+]([O-])c1ccccc1-c1nc2ccccc2n1CCc1ccccc1 [Substrate 12] | −

Test system: S. aureus (including MRSA) 10 strains
Assay: Detection of various strains of S. aureus in the presence of substrates
Assay type: cell-based, Staphylococcus aureus
Conditions: not given

Row | Compound | Distinguishing or identifying Staphylococcus aureus strains, in particular MRSA, from most of the other Gram-positive bacterial strains
39 | O=[N+]([O-])c1ccc(F)cc1-c1nc2ccccc2o1 [Substrate 7] | make it possible to distinguish or identify the Staphylococcus aureus strains

Same assay, conditions: 24 h; 10 strains

Row | Compound | No. of strains detected, S. aureus (including MRSA)
40 | O=[N+]([O-])c1ccc(F)cc1-c1nc2ccccc2o1 [Substrate 7] | 10

Same assay, conditions: 48 h; 10 strains

Row | Compound | No. of strains detected, S. aureus (including MRSA)
41 | O=[N+]([O-])c1ccc(F)cc1-c1nc2ccccc2o1 [Substrate 7] | 10

Test system: S. epidermidis 2 strains
Assay: as above
Assay type: cell-based
Conditions: 24 h
Experimental: as §1, §2
18 microorganism strains derived from collections and belonging to various species of bacteria and of yeasts were inoculated onto these media by semi-quantitative isolation of 10 μl of a suspension at 0.5 McFarland diluted to 1/20. […]

Row | Compound | No. of strains detected, S. epidermidis
42 | O=[N+]([O-])c1ccc(F)cc1-c1nc2ccccc2o1 [Substrate 7] | 0

Same assay, conditions: 48 h

Row | Compound | No. of strains detected, S. epidermidis
43 | O=[N+]([O-])c1ccc(F)cc1-c1nc2ccccc2o1 [Substrate 7] | 2

Test system: Staph spp 12 strains
Assay: as above
Assay type: cell-based
Conditions: 24 h

Row | Compound | No. of strains detected, Staph spp
44 | O=[N+]([O-])c1ccc(F)cc1-c1nc2ccccc2o1 [Substrate 7] | 12

Same assay, conditions: 48 h

Row | Compound | No. of strains detected, Staph spp
45 | O=[N+]([O-])c1ccc(F)cc1-c1nc2ccccc2o1 [Substrate 7] | 12

Test system: Enterococcus 6 strains
Assay: as above
Assay type: cell-based
Conditions: 24 h

Row | Compound | No. of strains detected, Enterococcus
46 | O=[N+]([O-])c1ccc(F)cc1-c1nc2ccccc2o1 [Substrate 7] | 0

Same assay, conditions: 48 h

Row | Compound | No. of strains detected, Enterococcus
47 | O=[N+]([O-])c1ccc(F)cc1-c1nc2ccccc2o1 [Substrate 7] | 1
